Assay results published in ChEMBL document CHEMBL5244230, “Artemisinin-derived hybrids and their anticancer activity” (Eur J Med Chem, 2020).
≈ marks a conversion by molar mass, not a printed value. Where “and” joins values, the source holds several entries; their conditions need not be identical. Identical values can stand only once.

What was measured:
HeLa [1] = experiment: Cytotoxicity against human HeLa cells assessed as cell viability incubated for 48 hrs by MTT assay; assay type: functional, cell-based
[2] = Antiproliferative activity against human 1205Lu cells; assay type: functional, cell-based
HeLa [3] = experiment: Antiproliferative activity against human HeLa cells; assay type: functional, cell-based
HCT-116 = experiment: Antiproliferative activity against human HCT-116 cells; assay type: functional, cell-based
A549 [4] = experiment: Antiproliferative activity against human A549 cells assessed as reduction in cell viability measured for 24 hrs; assay type: functional, cell-based; details: A549, 24 h
SGC-7901 = experiment: Antiproliferative activity against human SGC-7901 cells assessed as reduction in cell viability measured for 24 hrs; assay type: functional, cell-based; details: SGC-7901, 24 h
PC-3 [5] = experiment: Antiproliferative activity against human PC-3 cells assessed as reduction in cell viability measured for 24 hrs; assay type: functional, cell-based; details: PC-3, 24 h
EL4 = experiment: Antiproliferative activity against mouse EL4 cells; assay type: functional, cell-based
HT-29 [6] = experiment: Antiproliferative activity against human HT-29 cells; assay type: functional, cell-based
MCF7 [7] = experiment: Anticancer activity against human MCF7 cells; assay type: functional, cell-based
UACC-62 [8] = experiment: Anticancer activity against human UACC-62 cells; assay type: functional, cell-based
TK-10 [9] = experiment: Anticancer activity against human TK-10 cells; assay type: functional, cell-based
UACC-62 [10] = experiment: Anticancer activity against human UACC-62 cells assessed as total growth inhibition; assay type: functional
[11] = Cytotoxicity against CHO cells; assay type: toxicity, cell-based, Cricetulus griseus; details: Chinese hamster
TK-10 [12] = experiment: Anticancer activity against human TK-10 cells assessed as total growth inhibition; assay type: functional
MCF7 [13] = experiment: Anticancer activity against human MCF7 cells assessed as total growth inhibition; assay type: functional
[14] = Blood clearance in rat at 100 mg/kg, po; assay type: ADME, organism-based
SMMC-7721 = experiment: Antiproliferative activity against human SMMC-7721 cells; assay type: functional, cell-based
HepG2 [15] = experiment: Antiproliferative activity against human HepG2 cells; assay type: functional, cell-based
HL-60 [16] = experiment: Antiproliferative activity against human HL-60 cells; assay type: functional, cell-based
MCF7 [17] = experiment: Anticancer activity against human MCF7 cells assessed as inhibition of cell growth; assay type: functional, cell-based
[18] = Antiproliferative activity against human U-87 MG cells; assay type: functional, cell-based, U-87MG ATCC
HT-29 [19] = experiment: Antiproliferative activity against human HT-29 cells assessed as reduction in cell viability; assay type: functional, cell-based
NCI-H460 = experiment: Antiproliferative activity against human NCI-H460 cells; assay type: functional, cell-based
HL-60 [20] = experiment: Anticancer activity against human HL-60 cells; assay type: functional, cell-based
K562 = experiment: Antiproliferative activity against human K562 cells; assay type: functional, cell-based
HEK293 = experiment: Antiproliferative activity against human HEK293 cells; assay type: functional, cell-based
A-431 = experiment: Antiproliferative activity against human A-431 cells; assay type: functional, cell-based
A549 [21] = experiment: Antiproliferative activity against human A549 cells; assay type: functional, cell-based
COLO 205 = experiment: Antiproliferative activity against human COLO 205 cells; assay type: functional, cell-based
P388/ADR = experiment: Antiproliferative activity against mouse P388/ADR cells assessed as reduction in cell viability measured after 72 hrs; assay type: functional, cell-based; details: 72 h
P388 = experiment: Anticancer activity against mouse P388 cells; assay type: functional, cell-based
HL-60 [22] = experiment: Antiproliferative activity against human HL-60 cells assessed as reduction in cell viability measured after 72 hrs; assay type: functional, cell-based; details: HL-60, 72 h
[23] = Anticancer activity against human Lu1 cells; assay type: functional, cell-based
PC-3 [24] = experiment: Antiproliferative activity against human PC-3 cells; assay type: functional, cell-based
MDA-MB-231 = experiment: Antiproliferative activity against human MDA-MB-231 cells; assay type: functional, cell-based; details: mda-mb-231
[25] = Antiproliferative activity against mouse P388 cells assessed as reduction in cell viability measured after 72 hrs; assay type: functional, cell-based; details: 72 h
HeLa [26] = experiment: Antiproliferative activity against human HeLa cells assessed as reduction in cell viability; assay type: functional, cell-based
Leukemia cell = experiment: Antiproliferative activity against human Leukemia cell assessed as reduction in cell viability; assay type: functional, cell-based
HCT-15 = experiment: Antiproliferative activity against human HCT-15 cells assessed as cell growth inhibition by MTT assay; assay type: functional, cell-based
A549 [27] = experiment: Antiproliferative activity against human A549 cells assessed as cell growth inhibition by MTT assay; assay type: functional, cell-based
[28] = Cytotoxicity against human HCEC cells; assay type: toxicity, cell-based
HepG2 [29] = experiment: Antiproliferative activity against human HepG2 cells assessed as cell growth inhibition by MTT assay; assay type: functional, cell-based
[30] = Cytotoxicity against human U87 cells assessed as cell growth inhibition measured after 48 hrs by MTT assay; assay type: functional, U-87MG ATCC; details: U-87 MG
B16 = experiment: Cytotoxicity against mouse B16 cells assessed as cell growth inhibition measured after 48 hrs by MTT assay; assay type: functional
Ca9-22 = experiment: Cytotoxicity against human Ca9-22 cells; assay type: functional, cell-based
HSC-2 = experiment: Cytotoxicity against human HSC-2 cells; assay type: functional, cell-based
DLD-1 = experiment: Cytotoxicity against human DLD-1 cells assessed as cell growth inhibition measured after 48 hrs by MTT assay; assay type: functional
SiHa = experiment: Cytotoxicity against human SiHa cells assessed as cell growth inhibition measured after 48 hrs by MTT assay; assay type: functional
A 172 = experiment: Cytotoxicity against human A-172 cells assessed as cell growth inhibition measured after 48 hrs by MTT assay; assay type: functional
HeLa [31] = experiment: Cytotoxicity against human HeLa cells assessed as cell growth inhibition measured after 48 hrs by MTT assay; assay type: functional

COc1ccc2c(N3CCN(CCCNCCO[C@H]4O[C@@H]5O[C@@]6(C)CC[C@H]7[C@H](C)CC[C@@H]([C@H]4C)[C@@]57OO6)CC3)c3ccc(Cl)cc3nc2c1
IC50 (HeLa [1]): 0.8 µM

C[C@H]1[C@@H](CCC(=O)Nc2ccc(F)cc2)O[C@@H]2O[C@]3(C)CC[C@H]4[C@H](C)CC[C@@H]1[C@@]24OO3
IC50 [2]: 40 µM | IC50 (HeLa [3]): 40 µM | IC50 (HCT-116): 40 µM

COc1ccc(Sc2cccc(C(=O)O[C@@H]3O[C@@H]4O[C@@]5(C)CC[C@H]6[C@H](C)[C@H](O)C[C@@H]([C@H]3C)[C@@]46OO5)c2)cc1
IC50 (A549 [4]): 4.3 µM | IC50 (SGC-7901): 4.3 µM | IC50 (PC-3 [5]): 4.3 µM

C[C@H]1[C@H](CCS(=O)(=O)CC[C@H]2O[C@@H]3O[C@@]4(C)CC[C@H]5[C@H](C)CC[C@@H]([C@H]2C)[C@@]35OO4)O[C@@H]2O[C@@]3(C)CC[C@H]4[C@H](C)CC[C@@H]1[C@@]24OO3
IC50 (EL4): 0.025 µM | IC50 (HT-29 [6]): 0.025 µM | IC50 (MCF7 [7]): 0.025 µM

C[C@H]1[C@H](CCS(=O)(=O)CCCS(=O)(=O)CC[C@H]2O[C@@H]3O[C@@]4(C)CC[C@H]5[C@H](C)CC[C@@H]([C@H]2C)[C@@]35OO4)O[C@@H]2O[C@@]3(C)CC[C@H]4[C@H](C)CC[C@@H]1[C@@]24OO3
IC50 (EL4): 0.38 µM | IC50 (HT-29 [6]): 0.38 µM | IC50 (MCF7 [7]): 0.38 µM

C[C@H]1[C@@H](OCC[N+]2(CCO[C@H]3O[C@@H]4O[C@@]5(C)CC[C@H]6[C@H](C)CC[C@@H]([C@H]3C)[C@@]46OO5)CCN(CCNc3ccnc4cc(Cl)ccc34)CC2)O[C@@H]2O[C@@]3(C)CC[C@H]4[C@H](C)CC[C@@H]1[C@@]24OO3.[Br-]
GI50 (UACC-62 [8]): 0.03 µM | GI50 (TK-10 [9]): 0.03 µM | GI50 (MCF7 [7]): 0.03 µM | TGI (UACC-62 [10]): 2.21 µM | IC50 [11]: 74.8 µM | TGI (TK-10 [12]): 2.21 µM | TGI (MCF7 [13]): 2.21 µM | CL/F [14]: 287 L/h/kg

C[C@H]1[C@H](N2CCS(=O)(=O)[C@H](CCCCCCOC(=O)c3ccc([N+](=O)[O-])cc3C(=O)O)C2)O[C@@H]2O[C@@]3(C)CC[C@H]4[C@H](C)CC[C@@H]1[C@@]24OO3
IC50 (SMMC-7721): 0.06 µM

C[C@H]1[C@@H](NC(=O)CCCCCCC(=O)NO)O[C@@H]2O[C@@]3(C)CC[C@H]4[C@H](C)CC[C@@H]1[C@@]24OO3 (racemic)
IC50 (HepG2 [15]): 1.28 µg/mL (≈ 2.82 µM) | IC50 (HL-60 [16]): 1.28 µg/mL (≈ 2.82 µM) | IC50 (MCF7 [7]): 1.28 µg/mL

C[C@H]1[C@@H](O)O[C@@H]2O[C@@]3(C)CC[C@H]4[C@H](C)CC[C@@H]1[C@@]24OO3 [ARTENIMOL]
IC50 (MCF7 [17]): 39.9 µM | IC50 [18]: 5.29 µM | IC50 (HT-29 [19]): 5.29 µM | IC50 (NCI-H460): 5.29 µM | IC50 (HL-60 [20]): 39.9 µM | IC50 (K562): 15.7 µM | IC50 (HEK293): 15.7 µM | IC50 (A-431): 15.7 µM | IC50 (MCF7 [7]): 39.9 µM | IC50 (A549 [21]): 5.29 µM | IC50 (COLO 205): 15.7 µM | IC50 (P388/ADR): 20.7 µM | IC50 (P388): 39.9 µM | IC50 (HL-60 [22]): 0.299 µM | IC50 [23]: 39.9 µM | IC50 (PC-3 [24]): 15.7 µM | IC50 (MDA-MB-231): 15.7 µM and 5.29 µM | IC50 (SMMC-7721): 0.4 µM | IC50 [25]: 1.5 µM

C[C@H]1[C@H](OC(=O)CCC(=O)O)O[C@@H]2O[C@@]3(C)CC[C@H]4[C@H](C)CC[C@@H]1[C@@]24OO3 [ARTESUNATE]
IC50 [2]: 7.1 µM | IC50 (HeLa [26]): 11.3 µM | IC50 (HeLa [1]): 0.5 µM | IC50 (Leukemia cell): 6.89 µM

O=c1[nH]cc(F)c(=O)[nH]1 [FLUOROURACIL]
IC50 (HCT-15): 33.7 µM | IC50 (A549 [4]): 6.8 µM | IC50 (A549 [27]): 33.7 µM | IC50 (SGC-7901): 6.8 µM | IC50 [28]: > 100 µM | IC50 (HepG2 [29]): 33.7 µM | IC50 (MCF7 [7]): > 40 µM | IC50 (PC-3 [5]): 6.8 µM

CC(=O)O[C@H]1C(=O)[C@@]2(C)[C@H]([C@H](OC(=O)c3ccccc3)[C@]3(O)C[C@H](OC(=O)[C@H](O)[C@@H](NC(=O)c4ccccc4)c4ccccc4)C(C)=C1C3(C)C)[C@]1(OC(C)=O)CO[C@@H]1C[C@@H]2O [PACLITAXEL]
GI50 [30]: 0.01 µM | GI50 (B16): 0.01 µM | IC50 (Ca9-22): > 100 µM | IC50 (HSC-2): > 100 µM | IC50 (MCF7 [7]): > 40 µM | GI50 (DLD-1): 0.01 µM | GI50 (SiHa): 0.01 µM | GI50 (A 172): 0.01 µM | GI50 (HeLa [31]): 0.01 µM
